Common to all, as to format: cell-based
Experiment [1] relates to mixture of Aspergillus niger (ATCC 9642), Aureobasidium pullulans (ATCC 15233), Chaetomium globosum (ATCC 6205), Penicillium funiculosum (ATCC 11797) and …. Description: Fungal resistance ASTM G21 in wall covering formulation. The arrangement: key: 0 is no growth; 1 is traces of growth (less than 10%); 2 is light growth (10-30%); 3 is medium growth (30-60%); 4 is maximum growth (more than 60%). The conditions noted are these: growth rating after 4 weeks. Here is the method:
(§1) Plastic samples containing the biocide concentrate composition containing antioxidant can be prepared by mixing with commercially available flexible PVC and processing at 175° C. in a brabender. The samples are pressed to form coupons for testing purposes. A sample containing no biocide is also prepared to serve as a negative control against the samples of the present invention.
(§2) Fungal resistance tests are conducted according to ASTM G-21. Briefly, a fungal inoculum containing a mixture of Aspergillus niger (ATCC 9642), Aureobasidium pullulans (ATCC 15233), Chaetomium globosum (ATCC 6205), Penicillium funiculosum (ATCC 11797) and Trichoderma virens (ATCC 9645) is prepared to obtain a final spore concentration of about 10^5 spores/ml. The samples (in triplicate) are placed on Petri-dishes containing nutrient salts agar and incubated with the spore suspension. The samples are then incubated at 28° C. for 4 weeks and rated weekly. The fungal growth of the samples is rated on a scale of 0 to 4 where: 0 is no growth, 1 is traces of growth (less than 10%); 2 is light growth (10-30%); 3 is medium growth (30-60%) and 4 is maximum growth (more than 60%). The ratings shown in Tables 1 to 3 correspond to those at the end of the test i.e., on 4th week for three different compositions of combination of biocidal agents.
A wall covering formulation is employed for evaluating the efficacy of the present biocide concentrate composition. The individual and synergistic biocidal compositions respectively IPBC, Folpet, OBPA, Folpet+IPBC, and Folpet+TBZ are added and processed in the brabender as disclosed in Example 1. The efficacy data for each sample was tested according to ASTM G21. Growth ratings after 4 weeks are described in the following Table 5.

Experiment [2] concerns Streptoverticillium reticulum (ATCC 25607). Nature of the experiment: Pink Stain test ASTM E1428, flexible PVC coupons. Details: key: 0 is no stain; 1 is a trace of stain (less than 10%); 2 is light stain (10-30%); 3 is medium stain (30-50%); 4 is maximum stain (more than 50%). The conditions noted are these: 14 days. The protocol:
as §1
Pink Stain tests are conducted according to ASTM E1428. Briefly, an inoculum containing the microorganism Streptoverticillium reticulum (ATCC 25607) is prepared. The inoculum is streaked onto the surface of Yeast Malt Extract Agar. The samples (in triplicate) are placed on the inoculated agar and incubated at 28° C. for 14 days. The degree of staining is rated on a scale of 0-4 where: 0 is no stain; 1 is a trace of stain (less than 10%); 2 is light stain (10-30%); 3 is medium stain (30-50%) and 4 is maximum stain (more than 50%). The ratings of the pink stain test are disclosed in Tables 1 to 3 for three different synergistic biocide compositions.

Experiment [3] concerns mixture of Aspergillus niger (ATCC 9642), Aureobasidium pullulans (ATCC 15233), Chaetomium globosum (ATCC 6205), Penicillium funiculosum (ATCC 11797) and …. Nature of the experiment: Fungal resistance test ASTM G-21, flexible PVC coupons. To be noted: rating at 4th week. Details: key: 0 is no growth; 1 is traces of growth (less than 10%); 2 is light growth (10-30%); 3 is medium growth (30-60%); 4 is maximum growth (more than 60%). The protocol: as §1, §2

Experiment [4] deals with mixture of A. niger (ATCC 9642) and P. funiculosum (ATCC 11797). Nature of the experiment: Zone of Inhibition, flexible PVC coupons on seeded Malt agar. The conditions noted are these: 4 weeks. Details: key: A zone of inhibition around the sample is rated as “+”; The absence of zone of inhibition is rated as “−”. Here is the method:
as §1
Briefly a fungal inoculum containing a mixture of A. niger (ATCC 9642) and P. funiculosum (ATCC 11797) is prepared. The spore suspension is added to molten Malt agar to a final concentration of 10^4-10^5 spores/ml, poured onto the petri-dishes and allowed to dry. The samples are placed on the surface of the seeded agar and incubated at 28° C. for 4 weeks. A zone of inhibition around the sample is rated as “+”. The absence of zone of inhibition is rated as “−”. The results are shown in Tables 1 to 3 for three different combinations of biocidal agents.

Experiment [5] relates to mixture of Aspergillus niger (ATCC 9642), Aureobasidium pullulans (ATCC 15233), Chaetomium globosum (ATCC 6205), Penicillium funiculosum (ATCC 11797) and …. Nature of the experiment: Fungal resistance ASTM G21 in swimming pool liner formulation. Details: key: 0 is no growth; 1 is traces of growth (less than 10%); 2 is light growth (10-30%); 3 is medium growth (30-60%); 4 is maximum growth (more than 60%). The conditions noted are these: growth rating after 4 weeks. The protocol: as §1, §2
A swimming pool liner formulation is selected. The individual and synergistic biocidal compositions respectively IPBC, Folpet, OBPA and Folpet+IPBC are added and processed in the brabender as described in Example 1. The efficacy data for each sample is tested according to ASTM G21. Growth ratings after 4 weeks are described in the following Table 4.

The source of these data is patent US20130310428A1, “THERMO-STABLE, ARSENIC-FREE SYNERGISTIC BIOCIDE CONCENTRATE COMPOSITION FOR POLYMER MATRICES AND PROCESS FOR PREPARING SAME” (ISP INVESTMENTS INC., priority 2010, published 2013).

SMILES strings stand for the structures.

With `O=C1c2ccccc2C(=O)N1SC(Cl)(Cl)Cl` [Folpet, trichloromethyl-thio-phthalimide], the “Fungal Resistance Test” value in experiment [1] (Quantity 2000 ppm) is on record as 3 (3 is medium growth (30-60%)); in experiment [3] (Quantity 3000 ppm) it was 1 (1 is traces of growth (less than 10%)); in experiment [5] (Quantity 2000 ppm), 1 (1 is traces of growth (less than 10%)). Moreover, the “Pink Stain” value in experiment [2] (Quantity 3000 ppm) is recorded as 0. Also, in experiment [4] (Quantity 3000 ppm), the Zone inhibition result is “−”.

`CCCCNC(=O)OCC#CI` [IPBC, 3-iodo-2-propynylbutyl-carbamate]: the entries for the “Fungal Resistance Test” value in experiment [1] (Quantity 1000 ppm), in experiment [3] (Quantity 500 ppm) and in experiment [5] (Quantity 500 ppm) were 2 (2 is light growth (10-30%)), 1 (1 is traces of growth (less than 10%)) and 1 (1 is traces of growth (less than 10%)), respectively. For the same molecule, in experiment [2] (Quantity 500 ppm), the “Pink Stain” value is 2 (2 is light stain (10-30%)). In addition, the Zone inhibition entry in experiment [4] (Quantity 500 ppm) is recorded as “+”.

Take `c1ccc2c(c1)Oc1ccccc1[As]2O[As]1c2ccccc2Oc2ccccc21` [OBPA, 10,10-oxybisphenoxarsine]: the “Fungal Resistance Test” value in experiment [1] (Quantity 600 ppm), in experiment [3] (Quantity 500 ppm) and in experiment [5] (Quantity 400 ppm) was 0 throughout. In addition, the “Pink Stain” value in experiment [2] (Quantity 500 ppm) is 0. The Zone inhibition entry in experiment [4] (Quantity 500 ppm) is listed as “+”.

Take `CCCCCCCCn1sccc1=O` [OIT, 2-Octyl-4-isothiazolin-3-one]: the “Pink Stain” value in experiment [2] (Quantity 500 ppm) is 1 (1 is a trace of stain (less than 10%)). In experiment [3] (Quantity 500 ppm), the “Fungal Resistance Test” value was 1 (1 is traces of growth (less than 10%)). Besides, in experiment [4] (Quantity 500 ppm), the Zone inhibition result was “−”.

With `c1ccc2[nH]c(-c3cscn3)nc2c1` [TBZ, Thiabendazole], in experiment [2] (Quantity 500 ppm), the “Pink Stain” value is 2 (2 is light stain (10-30%)). Further, the “Fungal Resistance Test” value in experiment [3] (Quantity 500 ppm) is recorded as 1 (1 is traces of growth (less than 10%)). Also, in experiment [4] (Quantity 500 ppm), the Zone inhibition result was “−”.
